According to patent EP2727916A1, “Neuroprotective multi-target directed drugs” (Universitat Autònoma de Barcelona, priority 2012, dated 2014):
“Also recorded” adds a separate entry of the source.

Tests used:
[1] = target: EeAChE (Electrophorus electricus, UniProt O42275); assay: Kinetic study of EeAChE inhibition (Lineweaver-Burk plots); format: biochemical
Protocol: (§1) Lineweaver-Burk reciprocal plots of initial velocity and substrate concentrations (0.1-1 mM) are presented. […] Lineweaver-Burk reciprocal plots of initial velocity and substrate concentrations (0.1-1 mM) are presented. […] Lineweaver-Burk reciprocal plots of initial velocity and substrate concentrations (0.1-1 mM) are presented. […] Three consecutive centrifuges were performed with buffer. […] 5 µM). All solution were made using Tris buffer pH7.4. […] 5 µM). All solution were made using Tris buffer pH7.4. […] 5 µM). All solution were made using Tris buffer pH7.4. Spectra were obtained after a Short-time incubation
To determine the type of the EeAChE inhibition mechanism of these compounds, a kinetic study was carried out on inhibitor 6.

[2] = target: T1, ratMAO-A (Rattus norvegicus, UniProt P21396); assay: MAO-A inhibition, radiometric method of Fowler and Tipton (14C 5-HT); format: biochemical; set-up: MAO-A and MAO-B activities were determined in rat brain homogenate; from tissue; host or cells: rat brain homogenate per the methods
T1 sequence (P21396 1-526): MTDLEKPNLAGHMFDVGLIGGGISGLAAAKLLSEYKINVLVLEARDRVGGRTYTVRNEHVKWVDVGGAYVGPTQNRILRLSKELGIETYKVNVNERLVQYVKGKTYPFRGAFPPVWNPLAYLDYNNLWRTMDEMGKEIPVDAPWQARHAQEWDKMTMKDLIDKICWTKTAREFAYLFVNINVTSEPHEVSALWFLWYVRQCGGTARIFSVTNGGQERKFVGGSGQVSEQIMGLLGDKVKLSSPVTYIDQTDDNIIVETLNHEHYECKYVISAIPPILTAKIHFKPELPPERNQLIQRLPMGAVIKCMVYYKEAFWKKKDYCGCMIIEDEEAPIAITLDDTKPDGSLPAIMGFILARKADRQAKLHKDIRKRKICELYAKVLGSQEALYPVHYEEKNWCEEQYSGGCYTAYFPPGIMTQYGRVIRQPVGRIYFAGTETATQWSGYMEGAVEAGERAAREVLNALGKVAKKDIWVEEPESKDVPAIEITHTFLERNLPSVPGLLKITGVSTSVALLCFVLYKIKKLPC

[3] = target: T2, bovine lung SSAO (Bos taurus, UniProt Q9TTK6); assay: Inhibition of semicarbazide sensitive amine oxidase (SSAO), radiochemical; format: biochemical
T2 construct: and bovine lung SSAO by compounds of the invention; from tissue; host or cells: bovine lung
T2 sequence (Q9TTK6 1-763): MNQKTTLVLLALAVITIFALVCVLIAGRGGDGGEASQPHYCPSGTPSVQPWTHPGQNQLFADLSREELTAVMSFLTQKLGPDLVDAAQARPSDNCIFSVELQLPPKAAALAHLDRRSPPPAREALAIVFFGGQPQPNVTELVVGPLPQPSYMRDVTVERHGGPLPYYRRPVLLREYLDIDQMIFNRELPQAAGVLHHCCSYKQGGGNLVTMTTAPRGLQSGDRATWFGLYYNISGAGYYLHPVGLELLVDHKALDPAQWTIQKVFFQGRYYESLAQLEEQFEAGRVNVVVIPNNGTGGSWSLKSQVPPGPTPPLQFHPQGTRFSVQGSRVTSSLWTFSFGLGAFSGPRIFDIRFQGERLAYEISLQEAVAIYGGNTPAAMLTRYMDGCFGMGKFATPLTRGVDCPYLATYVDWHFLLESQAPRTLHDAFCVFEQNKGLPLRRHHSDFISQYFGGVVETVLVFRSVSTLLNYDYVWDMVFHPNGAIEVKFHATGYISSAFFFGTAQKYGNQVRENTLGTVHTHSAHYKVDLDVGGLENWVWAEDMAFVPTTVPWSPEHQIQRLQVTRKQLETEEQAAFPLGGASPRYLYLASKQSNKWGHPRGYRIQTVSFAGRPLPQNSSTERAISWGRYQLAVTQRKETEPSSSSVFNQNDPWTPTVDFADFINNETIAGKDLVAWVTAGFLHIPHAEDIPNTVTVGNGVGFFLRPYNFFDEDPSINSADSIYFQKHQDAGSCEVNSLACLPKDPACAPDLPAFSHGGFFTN

[4] = target: electrophorus electricus acetylcholinesterase (eeAChE) (Electrophorus electricus, UniProt O42275); assay: biochemical; format: biochemical
[5] = Metal binding assay, spectrophotometric detection of Cu(II) complex; format: physicochemical; details: 10 µM, Tris buffer pH7.4, Cu(SO4) 6.25 and 12.5 µM, few minutes after addition
Protocol: as §1
It is known that 8-quinolinol is a strong chelator for biometals such iron and copper. This is an important precondition for the antioxidative-type drugs because it is the excessive iron stores and iron-mediated generation of free radicals in the brain that are thought to be associated with neurodegenerative diseases. Therefore, only chelators with a higher selectivity for iron over copper are expected to chelate iron instead of copper and have potential neuroprotective effects. […] A spectrophotometric method is used for measurement of the copper/iron-complexes stability constants of the compounds.
The metal binding assay was performed by the spectrophotometric detection of the formation of Fe(III)- and Cu(II)-6 complex.

[6] = target: T3, MAO-A (Rattus norvegicus, UniProt P21396); assay: Time-dependence of MAO-A inhibition (pre-incubation times); format: biochemical
T3 construct: from tissue; host or cells: rat brain homogenate per the methods
T3 sequence (P21396 1-526): T1 sequence (P21396 1-526)
Protocol: as §1
Independent inhibition assays were also performed at different pre-incubation periods for both two MAO isoforms (Figure 6). […]

[7] = 20 µM, pre-incubation times 0-360 min

Sequence of EeAChE (O42275 24-633): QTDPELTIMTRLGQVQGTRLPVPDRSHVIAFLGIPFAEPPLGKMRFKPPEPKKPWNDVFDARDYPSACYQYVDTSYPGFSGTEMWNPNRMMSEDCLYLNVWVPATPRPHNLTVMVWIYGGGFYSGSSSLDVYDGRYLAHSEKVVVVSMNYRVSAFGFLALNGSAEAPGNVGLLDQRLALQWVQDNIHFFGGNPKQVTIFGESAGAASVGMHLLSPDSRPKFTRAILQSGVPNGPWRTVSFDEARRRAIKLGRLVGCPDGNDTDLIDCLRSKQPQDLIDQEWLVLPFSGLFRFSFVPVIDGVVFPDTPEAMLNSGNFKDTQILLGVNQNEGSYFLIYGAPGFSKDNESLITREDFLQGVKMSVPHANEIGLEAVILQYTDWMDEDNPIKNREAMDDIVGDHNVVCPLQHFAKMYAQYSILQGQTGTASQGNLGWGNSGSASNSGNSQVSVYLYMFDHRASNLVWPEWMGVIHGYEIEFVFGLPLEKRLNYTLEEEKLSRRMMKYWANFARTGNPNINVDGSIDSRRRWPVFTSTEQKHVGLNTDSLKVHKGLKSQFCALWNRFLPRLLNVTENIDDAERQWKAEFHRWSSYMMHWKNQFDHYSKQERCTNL
Sequence of electrophorus electricus acetylcholinesterase (eeAChE) (O42275 24-633): as above

Compound: C#CCN(Cc1ccc(O)c2ncccc12)C(C#N)CCC1CCN(Cc2ccccc2)CC1 (stereo not drawn) [Compound 6, 4-(1-benzylpiperidin-4-yl)-2-(((8-hydroxyquinolin-5-yl)methyl)(prop-2-yny)amino)butanenitrile]
- type of EeAChE inhibition mechanism ([1]; Lineweaver-Burk reciprocal plots): mixed-type inhibition
- Ki ([1]; estimated from the slopes of double reciprocal plots): 1.21 ± 0.25 µM
- IC50 [2]: 6.16 ± 0.7 µM
- fold less active than M-30 for the inhibition of MAO-A [2]: 166 fold
- fold more active than donepezil 1 for MAO-A [2]: 138 fold
- IC50 [3]: 2.01 ± 0.5 µM
- IC50 [4]: 1.77 ± 0.1 µM
- fold more active than M-30 for the inhibition of AChE ([4]; compared with M-30): 64 fold
- formation of Cu(II)-6 complex, UV-vis spectrum change [5]: The 240 nm-band completely dissapeared while a new one appeared at 275 nm
- pre-incubation period to complete MAO-A activity inhibition [6, 7]: ≥ 180 min
- time-dependence of MAO-A inhibition [6, 7]: irreversible behaviour; also recorded: time-dependent
- IC50 ([6]; pre-incubation time 0 min): 29.1 µM
- IC50 ([6]; pre-incubation time 30 min): 5.8 µM
- IC50 ([6]; pre-incubation time 60 min): 2.3 µM
- IC50 ([6]; pre-incubation time 240 min): 0.7 µM
